Results published in patent US20090298820A1, “3-SUBSTITUTED-1H-PYRROLO[2,3-B]PYRIDINE AND 3-SUBSTITUTED-1H-PYRROLO[3,2-B]PYRIDINE COMPOUNDS, THEIR USE AS MTOR KINASE AND PI3 KINASE INHIBITORS, AND THEIR SYNTHESES” (Wyeth, priority 2008, published 2009).
Where a name gives a salt, the structure may show the parent alone. Values belong to the compound of their own block, whether it stands above or below them.

Experiments:
PI3Kγ = PI3Kγ (Homo sapiens, UniProt P48736); assay: PI3K-gamma fluorescence polarization assay; assay type: biochemical; conditions: read-out: PI3Kγ Median IC50
PI3Kγ, sequence (P48736 whole entry, species assumed): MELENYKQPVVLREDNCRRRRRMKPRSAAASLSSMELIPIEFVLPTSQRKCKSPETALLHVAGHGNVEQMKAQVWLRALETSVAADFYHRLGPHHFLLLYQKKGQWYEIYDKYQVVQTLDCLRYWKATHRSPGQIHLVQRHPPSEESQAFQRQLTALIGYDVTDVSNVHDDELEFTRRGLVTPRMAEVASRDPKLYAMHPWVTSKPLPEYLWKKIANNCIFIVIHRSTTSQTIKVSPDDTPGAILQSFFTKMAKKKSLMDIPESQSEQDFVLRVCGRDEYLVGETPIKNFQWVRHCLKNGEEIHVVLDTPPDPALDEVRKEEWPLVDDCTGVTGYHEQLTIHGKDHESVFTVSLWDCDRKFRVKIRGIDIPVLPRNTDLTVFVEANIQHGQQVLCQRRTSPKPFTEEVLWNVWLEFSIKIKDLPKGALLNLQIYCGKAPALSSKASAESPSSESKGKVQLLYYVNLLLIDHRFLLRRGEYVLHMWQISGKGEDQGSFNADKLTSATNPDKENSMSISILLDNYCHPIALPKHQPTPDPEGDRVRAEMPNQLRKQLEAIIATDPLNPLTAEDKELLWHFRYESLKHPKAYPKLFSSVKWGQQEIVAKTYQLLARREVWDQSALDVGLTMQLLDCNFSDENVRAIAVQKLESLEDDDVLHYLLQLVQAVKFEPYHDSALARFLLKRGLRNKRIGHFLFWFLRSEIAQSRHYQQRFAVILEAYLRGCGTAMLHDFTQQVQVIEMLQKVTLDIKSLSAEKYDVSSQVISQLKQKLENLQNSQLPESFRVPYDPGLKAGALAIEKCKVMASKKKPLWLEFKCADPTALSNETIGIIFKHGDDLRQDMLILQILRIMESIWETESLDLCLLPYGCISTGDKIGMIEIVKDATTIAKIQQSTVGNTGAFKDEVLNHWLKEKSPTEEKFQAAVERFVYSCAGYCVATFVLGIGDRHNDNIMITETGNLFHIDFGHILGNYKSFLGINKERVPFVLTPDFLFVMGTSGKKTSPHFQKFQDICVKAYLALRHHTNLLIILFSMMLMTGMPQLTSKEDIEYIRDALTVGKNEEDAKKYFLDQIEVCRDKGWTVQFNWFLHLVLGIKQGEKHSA

PI3Kα = PI3Kα (Homo sapiens, UniProt P42336); assay: PI3K-alpha fluorescence polarization assay; assay type: biochemical; conditions: read-out: PI3Kα Median IC50
PI3Kα, sequence (P42336 whole entry, species assumed): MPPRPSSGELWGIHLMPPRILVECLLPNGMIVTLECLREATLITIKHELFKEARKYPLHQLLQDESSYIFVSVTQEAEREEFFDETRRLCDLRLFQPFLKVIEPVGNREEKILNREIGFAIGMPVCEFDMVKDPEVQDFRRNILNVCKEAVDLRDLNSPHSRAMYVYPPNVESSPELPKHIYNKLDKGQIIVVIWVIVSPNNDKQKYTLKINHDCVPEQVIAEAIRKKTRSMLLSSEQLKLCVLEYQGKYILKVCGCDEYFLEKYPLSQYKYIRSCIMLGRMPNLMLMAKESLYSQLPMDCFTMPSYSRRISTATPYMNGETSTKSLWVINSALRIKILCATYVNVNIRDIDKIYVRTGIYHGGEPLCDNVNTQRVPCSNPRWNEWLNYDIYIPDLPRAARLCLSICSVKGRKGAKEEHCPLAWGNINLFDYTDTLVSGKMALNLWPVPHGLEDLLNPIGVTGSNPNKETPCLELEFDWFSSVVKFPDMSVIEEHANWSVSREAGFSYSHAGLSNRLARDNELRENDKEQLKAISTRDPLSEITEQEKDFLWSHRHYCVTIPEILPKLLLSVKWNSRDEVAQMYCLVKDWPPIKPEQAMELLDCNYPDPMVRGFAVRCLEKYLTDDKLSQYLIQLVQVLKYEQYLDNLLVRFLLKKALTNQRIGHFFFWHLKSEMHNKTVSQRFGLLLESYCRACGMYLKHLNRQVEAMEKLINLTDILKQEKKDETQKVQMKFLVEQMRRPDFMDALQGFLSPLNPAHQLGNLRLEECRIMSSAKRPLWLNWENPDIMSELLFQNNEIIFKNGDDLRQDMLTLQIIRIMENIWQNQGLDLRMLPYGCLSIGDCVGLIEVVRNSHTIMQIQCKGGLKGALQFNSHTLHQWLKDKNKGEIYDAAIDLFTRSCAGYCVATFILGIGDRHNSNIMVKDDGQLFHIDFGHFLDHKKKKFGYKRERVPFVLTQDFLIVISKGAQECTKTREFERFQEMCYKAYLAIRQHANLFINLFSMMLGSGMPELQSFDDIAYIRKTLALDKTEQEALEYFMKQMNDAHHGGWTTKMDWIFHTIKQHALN
PI3Kα, sequence (P27986 whole entry partner, species assumed): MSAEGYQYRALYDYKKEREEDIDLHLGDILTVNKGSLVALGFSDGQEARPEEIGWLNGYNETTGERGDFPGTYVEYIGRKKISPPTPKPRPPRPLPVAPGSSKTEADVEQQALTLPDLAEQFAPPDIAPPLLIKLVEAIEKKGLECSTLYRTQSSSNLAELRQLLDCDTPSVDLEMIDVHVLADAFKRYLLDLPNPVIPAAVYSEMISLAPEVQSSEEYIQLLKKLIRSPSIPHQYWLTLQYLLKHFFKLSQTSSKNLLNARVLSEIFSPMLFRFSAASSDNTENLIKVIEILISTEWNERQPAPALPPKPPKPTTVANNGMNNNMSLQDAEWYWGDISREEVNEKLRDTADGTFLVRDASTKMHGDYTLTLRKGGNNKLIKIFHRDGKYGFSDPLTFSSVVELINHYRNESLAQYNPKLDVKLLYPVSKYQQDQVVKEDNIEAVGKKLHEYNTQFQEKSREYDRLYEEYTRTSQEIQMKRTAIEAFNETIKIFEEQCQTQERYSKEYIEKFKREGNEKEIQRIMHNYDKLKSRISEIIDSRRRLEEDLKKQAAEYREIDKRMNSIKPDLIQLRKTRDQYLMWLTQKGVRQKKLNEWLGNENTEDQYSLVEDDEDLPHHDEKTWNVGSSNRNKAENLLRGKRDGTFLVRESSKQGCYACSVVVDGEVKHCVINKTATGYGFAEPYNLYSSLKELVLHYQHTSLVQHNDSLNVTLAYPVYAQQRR

mTOR = mTOR (Homo sapiens, UniProt P42345); assay: mTOR enzyme assay (DELFIA format, His6-S6K substrate); assay type: biochemical; conditions: read-out: mTOR Kinase Median IC50

Structure (SMILES): CN1CCN(C(=O)Nc2ccc3c(c2)C(=O)/C(=C/c2cn(C)c4nccc(-c5ccccc5)c24)O3)CC1 [Compound 188, 4-methyl-N-{(2Z)-2-[(1-methyl-4-phenyl-1H-pyrrolo[2,3-b]pyridin-3-yl)methylidene]-3-oxo-2,3-dihydro-1-benzofuran-5-yl}piperazine-1-carboxamide]
IC50 (PI3Kγ): > 10000 nM
IC50 (PI3Kα): > 10000 nM
IC50 (mTOR): 2450 nM
melting point: 211 to 213 °C

Structure (SMILES): CN(C)C(=O)C1CCN(c2ccnc3c2c(/C=C2\Oc4ccc(NC(=O)C(F)(F)F)cc4C2=O)cn3C)CC1 [Compound 163, N,N-dimethyl-1-{1-methyl-3-[(Z)-{3-oxo-5-[(trifluoroacetyl)amino]-1-benzofuran-2(3H)-ylidene}methyl]-1H-pyrrolo[2,3-b]pyridin-4-yl}piperidine-4-carboxamide]
IC50 (PI3Kγ): > 10000 nM
IC50 (PI3Kα): 5640 nM
melting point: 236 to 240 °C

Structure (SMILES): Cn1cc(/C=C2\Oc3cccc(O)c3C2=O)c2c(-c3cccc(OC(F)(F)F)c3)ccnc21 [Compound 110, (2Z)-4-hydroxy-2-({1-methyl-4-[3-(trifluoromethoxy)phenyl]-1H-pyrrolo[2,3-b]pyridin-3-yl}methylene)-1-benzofuran-3(2H)-one]
IC50 (PI3Kγ): > 10000 nM
IC50 (PI3Kα): 651 nM
IC50 (mTOR): 82.5 nM
melting point: 230 to 233 °C

Structure (SMILES): CCOC(=O)Nc1ccc2c(c1)C(=O)/C(=C/c1cn(C)c3nccc(N4CCC(C(=O)N(C)C)CC4)c13)O2 (as salt: Na) [Compound 171, ethyl[(2Z)-2-({4-[4-(dimethylcarbamoyl)piperidin-1-yl]-1-methyl-1H-pyrrolo[2,3-b]pyridin-3-yl}methylidene)-3-oxo-2,3-dihydro-1-benzofuran-5-yl]carbamate]
melting point: 162 to 167 °C

Structure (SMILES): CN(C(=O)C1CCN(c2ccnc3c2c(C=C2Oc4ccc(NC(=O)Nc5cccnc5)cc4C2=O)cn3C)CC1)C1CCOCC1 [Compound 213, N-methyl-1-[1-methyl-3-({3-oxo-5-[(pyridin-3-ylcarbamoyl)amino]-1-benzofuran-2(3H)-ylidene}methyl)-1H-pyrrolo[2,3-b]pyridin-4-yl]-N-(tetrahydro-2H-pyran-4-yl)piperidine-4-carboxamide]
IC50 (PI3Kγ): 7220 nM
IC50 (PI3Kα): 8360 nM
IC50 (mTOR): 18.9 nM

Structure (SMILES): COC1CCN(C(=O)C2CCN(c3ccnc4c3c(/C=C3\Oc5ccc(NC(=O)Nc6cccnc6)cc5C3=O)cn4C)CC2)C1 (stereo not drawn) [Compound 275, 1-{(2Z)-2-[(4-{4-[(3-methoxypyrrolidin-1-yl)carbonyl]piperidin-1-yl}-1-methyl-1H-pyrrolo[2,3-b]pyridin-3-yl)methylidene]-3-oxo-2,3-dihydro-1-benzofuran-5-yl}-3-pyridin-3-ylurea]
IC50 (PI3Kγ): 1330 nM
IC50 (PI3Kα): 1610 nM
IC50 (mTOR): 13 nM

Structure (SMILES): CN1CCN(c2ccc(NC(=O)Nc3ccc4c(c3)C(=O)/C(=C/c3cn(C)c5nccc(N6CC7CCC(C6)O7)c35)O4)cc2)CC1 [Compound 229, 1-[(2Z)-2-{[1-methyl-4-(8-oxa-3-azabicyclo[3.2.1]oct-3-yl)-1H-pyrrolo[2,3-b]pyridin-3-yl]methylidene}-3-oxo-2,3-dihydro-1-benzofuran-5-yl]-3-[4-(4-methylpiperazin-1-yl)phenyl]urea]
IC50 (PI3Kγ): 6670 nM
IC50 (PI3Kα): 2300 nM
IC50 (mTOR): 280 nM

Structure (SMILES): CN(C)C(=O)C1CCN(c2ccnc3c2c(/C=C2\Oc4ccc(NC(=O)Nc5nc6ccccc6n5C)cc4C2=O)cn3C)CC1 [Compound 290, N,N-dimethyl-1-(1-methyl-3-{(Z)-[5-{[(1-methyl-1H-benzimidazol-2-yl)carbamoyl]amino}-3-oxo-1-benzofuran-2(3H)-ylidene]methyl}-1H-pyrrolo[2,3-b]pyridin-4-yl)piperidine-4-carboxamide]
IC50 (PI3Kγ): > 10000 nM
IC50 (PI3Kα): 1250 nM
IC50 (mTOR): 150 nM

Structure (SMILES): Cn1cc(/C=C2\Oc3cc(O)cc(O)c3C2=O)c2c(-c3cncnc3)ccnc21 [Compound 62, (2Z)-4,6-dihydroxy-2-[(1-methyl-4-pyrimidin-5-yl-1H-pyrrolo[2,3-b]pyridin-3-yl)methylene]-1-benzofuran-3(2H)-one]
IC50 (mTOR): 4.3 nM
melting point: 340 °C

Structure (SMILES): Cc1cnccc1CN(C)C(=O)C1CCN(c2ccnc3c2c(/C=C2\Oc4ccc(NC(=O)Nc5cccnc5)cc4C2=O)cn3C)CC1 [Compound 222, N-methyl-1-{1-methyl-3-[(Z)-{3-oxo-5-[(pyridin-3-ylcarbamoyl)amino]-1-benzofuran-2(3H)-ylidene}methyl]-1H-pyrrolo[2,3-b]pyridin-4-yl}-N-[(3-methylpyridin-4-yl)methyl]piperidine-4-carboxamide]
IC50 (PI3Kγ): 2540 nM
IC50 (PI3Kα): 2830 nM
IC50 (mTOR): 34 nM

Structure (SMILES): CN(C)CCN(C)C(=O)C1CCN(c2ccnc3c2c(/C=C2\Oc4ccc(NC(=O)Nc5cccnc5)cc4C2=O)cn3C)CC1 [Compound 266, N-[2-(dimethylamino)ethyl]-N-methyl-1-{1-methyl-3-[(Z)-{3-oxo-5-[(pyridin-3-ylcarbamoyl)amino]-1-benzofuran-2(3H)-ylidene}methyl]-1H-pyrrolo[2,3-b]pyridin-4-yl}piperidine-4-carboxamide]
IC50 (PI3Kγ): 1200 nM
IC50 (PI3Kα): > 10000 nM
IC50 (mTOR): 42.5 nM

Structure (SMILES): Cn1cc(/C=C2\Oc3cccc(O)c3C2=O)c2c(-c3ccc(N4CCCCC4)cc3)ccnc21 [Compound 142, (2Z)-4-hydroxy-2-{[1-methyl-4-(4-piperidin-1-ylphenyl)-1H-pyrrolo[2,3-b]pyridin-3-yl]methylidene}-1-benzofuran-3(2H)-one]
IC50 (PI3Kγ): > 10000 nM
IC50 (PI3Kα): 1580 nM
IC50 (mTOR): 8 nM

Structure (SMILES): Cn1cc(/C=C2\Oc3cccc(O)c3C2=O)c2c(-c3cccc(C(=O)Nc4ccc(F)cc4)c3)ccnc21 [Compound 96, N-(4-fluorophenyl)-3-{3-[(Z)-(4-hydroxy-3-oxo-1-benzofuran-2(3H)-ylidene)methyl]-1-methyl-1H-pyrrolo[2,3-b]pyridin-4-yl}benzamide]
IC50 (PI3Kγ): 2700 nM
IC50 (PI3Kα): 301 nM
IC50 (mTOR): 13 nM

Structure (SMILES): Cn1cc(/C=C2\Oc3ccc(NC(=O)Nc4cccnc4)cc3C2=O)c2c(C3=CCOCC3)ccnc21 [Compound 294, 1-[(2Z)-2-{[4-(3,6-dihydro-2H-pyran-4-yl)-1-methyl-1H-pyrrolo[2,3-b]pyridin-3-yl]methylidene}-3-oxo-2,3-dihydro-1-benzofuran-5-yl]-3-pyridin-3-ylurea]
IC50 (PI3Kγ): > 10000 nM
IC50 (PI3Kα): 2080 nM
IC50 (mTOR): 27.5 nM

Further compounds by falling IC50 (PI3Kγ), results first:

IC50 (PI3Kγ): 748 nM
IC50 (PI3Kα): 326 nM
IC50 (mTOR): 64 nM
Structure (SMILES): C[C@@H]1CN(C2CCN(c3ccnc4c3c(/C=C3\Oc5ccc(NC(=O)Nc6cccnc6)cc5C3=O)cn4C)CC2)C[C@H](C)O1 [Compound 239, 1-{(2Z)-2-[(4-{4-[(2R,6S)-2,6-dimethylmorpholin-4-yl]piperidin-1-yl}-1-methyl-1H-pyrrolo[2,3-b]pyridin-3-yl)methylidene]-3-oxo-2,3-dihydro-1-benzofuran-5-yl}-3-pyridin-3-ylurea]

IC50 (PI3Kγ): 484 nM
IC50 (PI3Kα): 632 nM
IC50 (mTOR): 83 nM
Structure (SMILES): CN1CCN(c2ccnc3c2c(/C=C2\Oc4ccc(NC(=O)Nc5cccnc5)cc4C2=O)cn3C)CC1 [Compound 184, 1-[(2Z)-2-{[1-methyl-4-(4-methylpiperazin-1-yl)-1H-pyrrolo[2,3-b]pyridin-3-yl]methylidene}-3-oxo-2,3-dihydro-1-benzofuran-5-yl]-3-pyridin-3-ylurea]

IC50 (PI3Kγ): 282 nM
IC50 (PI3Kα): 68 nM
IC50 (mTOR): 0.6 nM
melting point: 322 to 324 °C
Structure (SMILES): Cn1cc(/C=C2\Oc3cc(O)cc(O)c3C2=O)c2c(N3CCCCC3)ccnc21 [Compound 40, (2Z)-4,6-dihydroxy-2-[(1-methyl-4-piperidin-1-yl-1H-pyrrolo[2,3-b]pyridin-3-yl)methylene]-1-benzofuran-3(2H)-one]

IC50 (PI3Kγ): 148 nM
IC50 (mTOR): 16 nM
melting point: 220 °C (dec.)
Structure (SMILES): CN1CC2CC1CN2c1ccnc2c1c(/C=C1\Oc3cccc(O)c3C1=O)cn2C (stereo not drawn) [Compound 153, (2Z)-4-hydroxy-2-{[1-methyl-4-(5-methyl-2,5-diazabicyclo[2.2.1]hept-2-yl)-1H-pyrrolo[2,3-b]pyridin-3-yl]methylidene}-1-benzofuran-3(2H)-one]

IC50 (PI3Kγ): 144 nM
IC50 (PI3Kα): 25 nM
IC50 (mTOR): 2.7 nM
Structure (SMILES): Cn1cc(/C=C2\Oc3cccc(O)c3C2=O)c2c(N3CC4COC(C3)O4)ccnc21 (stereo not drawn) [Compound 165, (2Z)-2-{[4-(6,8-dioxa-3-azabicyclo[3.2.1]oct-3-yl)-1-methyl-1H-pyrrolo[2,3-b]pyridin-3-yl]methylidene}-4-hydroxy-1-benzofuran-3(2H)-one]

IC50 (PI3Kγ): 141 nM
IC50 (PI3Kα): 24 nM
IC50 (mTOR): 0.4 nM
Structure (SMILES): Cn1cc(/C=C2\Oc3cc(O)cc(O)c3C2=O)c2c(-c3ccc(N)cc3)ccnc21 [Compound 41, (2Z)-2-{[4-(4-aminophenyl)-1-methyl-1H-pyrrolo[2,3-b]pyridin-3-yl]methylene}-4,6-dihydroxy-1-benzofuran-3(2H)-one]

IC50 (PI3Kγ): 127 nM
IC50 (PI3Kα): 29 nM
IC50 (mTOR): 0.7 nM
melting point: 280 to 287 °C
Structure (SMILES): Cn1cc(/C=C2\Oc3cccc(O)c3C2=O)c2c(N3CCC(C(N)=O)CC3)ccnc21 [Compound 114, 1-{3-[(Z)-(4-hydroxy-3-oxo-1-benzofuran-2(3H)-ylidene)methyl]-1-methyl-1H-pyrrolo[2,3-b]pyridin-4-yl}piperidine-4-carboxamide]

IC50 (PI3Kγ): 83 nM
IC50 (PI3Kα): 33 nM
IC50 (mTOR): 1.7 nM
melting point: 175 °C
Structure (SMILES): CNC(=O)c1ccc(-c2ccnc3c2c(/C=C2\Oc4cccc(O)c4C2=O)cn3C)cc1 [Compound 132, 4-{3-[(Z)-(4-hydroxy-3-oxo-1-benzofuran-2(3H)-ylidene)methyl]-1-methyl-1H-pyrrolo[2,3-b]pyridin-4-yl}-N-methylbenzamide]

IC50 (PI3Kγ): 30 nM
IC50 (PI3Kα): 37 nM
IC50 (mTOR): 1.5 nM
melting point: 298 to 305 °C (dec.)
Structure (SMILES): CNC(=O)Nc1ccc(-c2ccnc3c2c(/C=C2\Oc4cccc(O)c4C2=O)cn3C)cc1 [Compound 133, 1-(4-{3-[(Z)-(4-hydroxy-3-oxo-1-benzofuran-2(3H)-ylidene)methyl]-1-methyl-1H-pyrrolo[2,3-b]pyridin-4-yl}phenyl)-3-methylurea]
